Assay results taken from US8362054B2, “Therapeutic substituted lactams” (Allergan, Inc., priority 2007, dated 2013).

What was measured:
EP4 [1] = molecular target: T1, EP4 (Homo sapiens, UniProt P35408); assay: EP4 binding (KI)
From the text: (§1) U.S. patent application Ser. No. 11/553,143, filed on Oct. 26, 2006, incorporated by reference herein, describes the methods used to obtain the in vitro data in the table below.

EP2 [2] = molecular target: T2, EP2 (Homo sapiens, UniProt P43116); assay: EP2 cAMP assay; format: cell-based
T2 sequence (P43116 whole entry): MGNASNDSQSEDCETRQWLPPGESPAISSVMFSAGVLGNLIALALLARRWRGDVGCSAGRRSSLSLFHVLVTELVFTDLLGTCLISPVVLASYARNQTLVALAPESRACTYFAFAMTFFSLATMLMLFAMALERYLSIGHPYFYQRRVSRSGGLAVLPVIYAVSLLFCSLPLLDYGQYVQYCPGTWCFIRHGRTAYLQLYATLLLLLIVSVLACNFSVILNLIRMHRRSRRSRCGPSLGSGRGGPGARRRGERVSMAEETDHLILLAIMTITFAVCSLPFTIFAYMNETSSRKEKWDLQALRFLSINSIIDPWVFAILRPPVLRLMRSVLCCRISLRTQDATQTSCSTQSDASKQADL
From the text: as §1

EP4 [3] = molecular target: T1, EP4; assay: EP4 flipr functional assay; format: cell-based
From the text: as §1

EP2 [4] = molecular target: T2, EP2; assay: EP2 flipr functional assay; format: cell-based
From the text: as §1

EP2 [5] = molecular target: T2, EP2; assay: EP2 binding (Ki)
From the text: as §1

hEP3A = molecular target: T3, hEP3A (Homo sapiens, UniProt P43115); assay: Other receptors functional assay, hEP3A; format: cell-based
T3 sequence (P43115 1-390): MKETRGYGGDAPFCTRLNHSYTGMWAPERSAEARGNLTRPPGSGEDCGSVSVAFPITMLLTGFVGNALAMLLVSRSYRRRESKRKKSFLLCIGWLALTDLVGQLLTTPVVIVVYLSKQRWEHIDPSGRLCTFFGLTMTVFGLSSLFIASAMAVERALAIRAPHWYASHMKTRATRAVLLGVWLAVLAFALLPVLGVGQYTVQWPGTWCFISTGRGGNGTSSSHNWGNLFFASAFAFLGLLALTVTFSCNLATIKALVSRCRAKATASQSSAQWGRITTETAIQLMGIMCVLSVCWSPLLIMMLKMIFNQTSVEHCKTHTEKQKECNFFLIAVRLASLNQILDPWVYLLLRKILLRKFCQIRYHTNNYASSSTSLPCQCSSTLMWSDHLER
From the text: as §1

T1 sequence (P35408 whole entry): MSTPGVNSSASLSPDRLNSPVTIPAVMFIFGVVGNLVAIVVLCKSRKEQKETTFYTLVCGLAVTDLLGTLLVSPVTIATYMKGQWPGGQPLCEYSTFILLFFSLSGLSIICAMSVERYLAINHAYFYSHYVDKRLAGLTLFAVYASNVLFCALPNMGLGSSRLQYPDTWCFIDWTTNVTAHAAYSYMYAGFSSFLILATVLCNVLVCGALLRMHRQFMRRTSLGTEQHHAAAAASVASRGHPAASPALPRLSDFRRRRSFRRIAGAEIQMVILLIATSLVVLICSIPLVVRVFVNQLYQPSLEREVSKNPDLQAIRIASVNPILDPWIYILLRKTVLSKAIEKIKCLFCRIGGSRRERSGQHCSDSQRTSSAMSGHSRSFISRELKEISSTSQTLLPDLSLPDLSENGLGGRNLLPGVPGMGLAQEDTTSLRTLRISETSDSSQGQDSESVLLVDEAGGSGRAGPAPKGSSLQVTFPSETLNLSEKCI

SMILES: O=C(O)c1ccc(COC[C@H]2CCC(=O)N2Cc2cc(Cl)cc(Cl)c2)s1 [(R)-5-(((1-(3,5-dichlorobenzyl)-5-oxopyrrolidin-2-yl)methoxy)methyl)thiophene-2-carboxylic acid]
- Ki (EP4 [1]): 7.3 µM
- EC50 (EP2 [2]): 0.081 µM
- EC50 (EP4 [3]): > 10 µM
- EC50 (EP2 [4]): 8.51 µM
- Ki (EP2 [5]): 2.57 µM
- EC50 (hEP3A): 6450 nM
